Assay results as given in US10745384B2, “Indazole derivatives as αv integrin antagonists” (BRISTOL-MYERS SQUIBB COMPANY, priority 2016, dated 2020).
Where a name gives a salt, the structure may show the parent alone.

Molecular target: T1, human αVβ6 (Homo sapiens, UniProt P06756+P18564)
T1 construct: purchased R & D systems 3817-AV
Assay: human αVβ6 HTRF binding assay
Conditions: recombinant human αVβ6 integrin, FITC-conjugated fibronectin
Description: All binding assays used the HTRF (homogeneous time resolved fluorescence) technology from Cisbio International, therefore all assays are described as HTRF binding assays. The assay results for the Examples are listed above together with the characterization data. The HTRF binding assays are established for the following integrins: human αVβ6, human αVβ1, human αVβ3, human αVβ5, and human αVβ8. All assays used the following assay buffer: 20 mM Tris, pH 7.4, 1 mM MgCl2, 1 mM MnCl2, 0.01% Tween 20, and 0.01% BSA. Alternatively, a SPA-based assay was used for evaluation of receptor binding.
The following describes the components and a representative procedure for the human αVβ6 HTRF binding assay: Recombinant human αVβ6 Integrin (R & D systems, 3817-AV) was biotinylated. Biotinylated human αVβ6 Integrin was added to assay vessel at a final concentration of 1.25 nM. FITC-conjugated fibronectin (Cytoskeleton, FNR02) was then added at the final concentration of 5 nM. The mixture was centrifuged at 600 rpm for three minutes using Thermo Fisher Heraeus Multifuge X3 centrifuge and then incubated at room temperature for an hour. Streptavidin Terbium (Cisbio international 610STLB) was then added at the final concentration of 0.625 nM. The resulting mixture was centrifuged at 600 rpm for three minutes using Thermo Fisher Heraeus Multifuge X3 centrifuge and then incubated at room temperature overnight in dark before reading HTRF signals. […]

T1 sequence (P06756 31-992 limits assumed): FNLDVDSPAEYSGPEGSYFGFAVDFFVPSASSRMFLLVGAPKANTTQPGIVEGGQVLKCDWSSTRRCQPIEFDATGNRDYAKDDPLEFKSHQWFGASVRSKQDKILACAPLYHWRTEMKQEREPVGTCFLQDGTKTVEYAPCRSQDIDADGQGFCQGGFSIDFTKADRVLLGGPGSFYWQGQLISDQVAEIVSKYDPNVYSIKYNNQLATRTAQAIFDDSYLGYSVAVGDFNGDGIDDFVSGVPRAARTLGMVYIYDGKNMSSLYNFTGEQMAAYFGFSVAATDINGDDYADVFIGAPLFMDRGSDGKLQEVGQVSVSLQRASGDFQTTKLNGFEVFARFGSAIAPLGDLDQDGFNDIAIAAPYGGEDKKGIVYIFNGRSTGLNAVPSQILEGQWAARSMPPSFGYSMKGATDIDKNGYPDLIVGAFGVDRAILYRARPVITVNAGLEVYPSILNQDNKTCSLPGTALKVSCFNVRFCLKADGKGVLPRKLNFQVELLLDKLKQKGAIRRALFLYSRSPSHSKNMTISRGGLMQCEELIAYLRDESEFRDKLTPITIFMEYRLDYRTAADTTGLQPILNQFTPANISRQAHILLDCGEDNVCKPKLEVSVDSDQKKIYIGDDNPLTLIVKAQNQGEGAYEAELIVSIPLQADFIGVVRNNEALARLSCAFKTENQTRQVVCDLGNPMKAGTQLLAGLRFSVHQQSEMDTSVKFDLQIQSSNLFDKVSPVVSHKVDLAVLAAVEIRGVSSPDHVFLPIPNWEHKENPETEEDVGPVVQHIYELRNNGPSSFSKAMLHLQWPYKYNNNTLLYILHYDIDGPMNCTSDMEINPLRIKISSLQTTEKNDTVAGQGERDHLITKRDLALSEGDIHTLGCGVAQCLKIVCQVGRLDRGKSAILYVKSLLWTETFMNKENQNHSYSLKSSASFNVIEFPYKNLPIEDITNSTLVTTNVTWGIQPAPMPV
T1 sequence (P18564 22-707 limits assumed): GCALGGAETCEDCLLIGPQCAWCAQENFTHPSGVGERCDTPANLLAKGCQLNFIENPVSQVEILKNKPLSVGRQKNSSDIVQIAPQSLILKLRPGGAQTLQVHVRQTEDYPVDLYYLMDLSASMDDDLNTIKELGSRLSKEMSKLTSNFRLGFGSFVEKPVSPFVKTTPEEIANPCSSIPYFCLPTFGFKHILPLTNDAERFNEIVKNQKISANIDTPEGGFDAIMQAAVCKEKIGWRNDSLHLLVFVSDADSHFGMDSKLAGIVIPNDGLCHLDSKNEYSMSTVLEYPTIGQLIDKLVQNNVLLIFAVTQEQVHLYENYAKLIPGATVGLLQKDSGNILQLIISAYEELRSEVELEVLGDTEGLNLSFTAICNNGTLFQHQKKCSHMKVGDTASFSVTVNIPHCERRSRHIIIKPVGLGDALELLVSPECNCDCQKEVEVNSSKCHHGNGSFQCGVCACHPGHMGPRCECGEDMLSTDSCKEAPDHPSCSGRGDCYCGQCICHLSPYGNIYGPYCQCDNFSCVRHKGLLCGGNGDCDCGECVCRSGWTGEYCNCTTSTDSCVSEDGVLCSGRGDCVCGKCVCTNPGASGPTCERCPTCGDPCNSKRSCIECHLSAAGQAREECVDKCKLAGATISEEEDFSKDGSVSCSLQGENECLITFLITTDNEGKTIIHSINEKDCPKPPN

Compound | IC50
CN(C)C(=O)c1cccc(C(CC(=O)O)n2ncc3cc(CCc4ccc5c(n4)NCCC5)ccc32)c1 (stereo not drawn) [Example 24, 3-(3-(Dimethylcarbamoyl)phenyl)-3-(5-(2-(5,6,7,8-tetrahydro-1,8-naphthyridin-2-yl)ethyl)-1H-indazol-1-yl)propanoic acid] | 130 nM
O=C(O)CC(c1ccc2c(c1)oc1ccccc12)n1ncc2cc(CCc3ccc4c(n3)NCCC4)ccc21 (stereo not drawn) [Example 25, 3-(Dibenzo[b,d]furan-3-yl)-3-(5-(2-(5,6,7,8-tetrahydro-1,8-naphthyridin-2-yl)ethyl)-1H-indazol-1-yl)propanoic acid] | 530 nM
CN(C)Cc1cccc(C(CC(=O)O)n2ncc3cc(CCc4ccc5c(n4)NCCC5)ccc32)c1 (stereo not drawn) [Example 26, 3-(3-((Dimethylamino)methyl)phenyl)-3-(5-(2-(5,6,7,8-tetrahydro-1,8-naphthyridin-2-yl)ethyl)-1H-indazol-1-yl)propanoic acid] | 120 nM
O=C(O)CC(c1cnc2ccccc2n1)n1ncc2cc(CCc3ccc4c(n3)NCCC4)ccc21 (stereo not drawn) [Example 27, 3-(Quinoxalin-2-yl)-3-(5-(2-(5,6,7,8-tetrahydro-1,8-naphthyridin-2-yl)ethyl)-1H-indazol-1-yl)propanoic acid] | 240 nM
O=C(O)CC(c1cc(Cl)cc(Cl)c1)n1ncc2cc(CCc3ccc4c(n3)NCCC4)ccc21 (stereo not drawn) [Example 28, 3-(3,5-Dichlorophenyl)-3-(5-(2-(5,6,7,8-tetrahydro-1,8-naphthyridin-2-yl)ethyl)-1H-indazol-1-yl)propanoic acid] | 210 nM
CN(C)C(=O)c1cccc(C(CC(=O)O)n2ncc3c(OCCc4ccc5c(n4)NCCC5)cccc32)c1 (stereo not drawn) [Example 29, 3-(3-(Dimethylcarbamoyl)phenyl)-3-(4-(2-(5,6,7,8-tetrahydro-1,8-naphthyridin-2-yl)ethoxy)-1H-indazol-1-yl)propanoic acid] | 1500 nM
O=C(O)CC(c1ccc2c(c1)oc1ccccc12)n1ncc2c(OCCc3ccc4c(n3)NCCC4)cccc21 (stereo not drawn) [Example 30, 3-(Dibenzo[b,d]furan-3-yl)-3-(4-(2-(5,6,7,8-tetrahydro-1,8-naphthyridin-2-yl)ethoxy)-1H-indazol-1-yl)propanoic acid] | 1200 nM
O=C(O)CC(CCC(F)(F)F)n1ncc2c(CCCc3ccc4c(n3)NCCC4)cccc21 (stereo not drawn) [Example 31, 6,6,6-Trifluoro-3-(4-(3-(5,6,7,8-tetrahydro-1,8-naphthyridin-2-yl)propyl)-1H-indazol-1-yl)hexanoic acid] | 3300 nM
O=C(O)CC(c1cc(Cl)cc(Cl)c1)n1ncc2c(OCCc3ccc4c(n3)NCCC4)cccc21 (stereo not drawn) [Example 32, 3-(3,5-Dichlorophenyl)-3-(4-(2-(5,6,7,8-tetrahydro-1,8-naphthyridin-2-yl)ethoxy)-1H-indazol-1-yl)propanoic acid] | 1300 nM
O=C(O)CC(c1cnc2ccccc2n1)n1ncc2c(OCCc3ccc4c(n3)NCCC4)cccc21 (stereo not drawn) [Example 33, 3-(Quinoxalin-2-yl)-3-(4-(2-(5,6,7,8-tetrahydro-1,8-naphthyridin-2-yl)ethoxy)-1H-indazol-1-yl)propanoic acid] | 1600 nM
CN(C)C(=O)c1cccc(C(CC(=O)O)n2ncc3cc(OCCc4ccc5c(n4)NCCC5)ccc32)c1 (stereo not drawn) [Example 35, 3-(3-(Dimethylcarbamoyl)phenyl)-3-(5-(2-(5,6,7,8-tetrahydro-1,8-naphthyridin-2-yl)ethoxy)-1H-indazol-1-yl)propanoic acid] | 17 nM
O=C(N[C@@H](Cn1ncc2cc(CCCc3ccc4c(n3)NCCC4)ccc21)C(=O)O)OCc1ccccc1 [Example 36, (S)-2-(((Benzyloxy)carbonyl)amino)-3-(5-(3-(5,6,7,8-tetrahydro-1,8-naphthyridin-2-yl)propyl)-1H-indazol-1-yl)propanoic acid] | 77 nM
CN(C)C(=O)c1cccc([C@@H](CC(=O)O)n2ncc3cc(OCCc4ccc5c(n4)NCCC5)ccc32)c1 [Example 37, (R)-3-(3-(Dimethylcarbamoyl)phenyl)-3-(5-(2-(5,6,7,8-tetrahydro-1,8-naphthyridin-2-yl)ethoxy)-1H-indazol-1-yl)propanoic acid] | 1100 nM
CN(C)C(=O)c1cccc([C@H](CC(=O)O)n2ncc3cc(OCCc4ccc5c(n4)NCCC5)ccc32)c1 [Example 38, (S)-3-(3-(Dimethylcarbamoyl)phenyl)-3-(5-(2-(5,6,7,8-tetrahydro-1,8-naphthyridin-2-yl)ethoxy)-1H-indazol-1-yl)propanoic acid] | 4.2 nM
O=C(NC(Cn1ncc2c(OCCc3ccc4c(n3)NCCC4)cccc21)C(=O)O)OCc1ccccc1 (stereo not drawn) [Example 39, 2-(((Benzyloxy)carbonyl)amino)-3-(4-(2-(5,6,7,8-tetrahydro-1,8-naphthyridin-2-yl)ethoxy)-1H-indazol-1-yl)propanoic acid] | 340 nM
COc1ccc([C@@H](CC(=O)O)n2ncc3cc(OCCc4ccc5c(n4)NCCC5)ccc32)cn1 [Example 40, (R)-3-(6-Methoxypyridin-3-yl)-3-(5-(2-(5,6,7,8-tetrahydro-1,8-naphthyridin-2-yl)ethoxy)-1H-indazol-1-yl)propanoic acid] | 210 nM
O=C(O)CC(c1cncc(Cl)c1)n1ncc2cc(OCCc3ccc4c(n3)NCCC4)ccc21 (stereo not drawn) [Example 42, 3-(5-Chloropyridin-3-yl)-3-(5-(2-(5,6,7,8-tetrahydro-1,8-naphthyridin-2-yl)ethoxy)-1H-indazol-1-yl)propanoic acid, TFA] | 4.4 nM
O=C(O)CC(c1cc(Cl)cc(Cl)c1)n1ncc2cc(OCCc3ccc4c(n3)NCCC4)ccc21 (stereo not drawn) [Example 43, 3-(3,5-Dichlorophenyl)-3-(5-(2-(5,6,7,8-tetrahydro-1,8-naphthyridin-2-yl)ethoxy)-1H-indazol-1-yl)propanoic acid, TFA] | 3.2 nM
COc1ccc(C(CC(=O)O)n2ncc3cc(OCCc4ccc5c(n4)NCCC5)ccc32)cc1F (stereo not drawn) [Example 44, 3-(3-Fluoro-4-methoxyphenyl)-3-(5-(2-(5,6,7,8-tetrahydro-1,8-naphthyridin-2-yl)ethoxy)-1H-indazol-1-yl)propanoic acid, TFA] | 8.71 nM
O=C(O)CC(C1CC1)n1ncc2cc(OCCc3ccc4c(n3)NCCC4)ccc21 (stereo not drawn) [Example 45, 3-Cyclopropyl-3-(5-(2-(5,6,7,8-tetrahydro-1,8-naphthyridin-2-yl)ethoxy)-1H-indazol-1-yl)propanoic acid, TFA] | 2300 nM
CCCCCC(CC(=O)O)n1ncc2cc(OCCc3ccc4c(n3)NCCC4)ccc21 (stereo not drawn) [Example 46, 3-(5-(2-(5,6,7,8-Tetrahydro-1,8-naphthyridin-2-yl)ethoxy)-1H-indazol-1-yl)octanoic acid, TFA] | 330 nM
O=C(O)CC(c1ccc2c(c1)CCO2)n1ncc2cc(OCCc3ccc4c(n3)NCCC4)ccc21 (stereo not drawn) [Example 47, 3-(2,3-Dihydrobenzofuran-5-yl)-3-(5-(2-(5,6,7,8-tetrahydro-1,8-naphthyridin-2-yl)ethoxy)-1H-indazol-1-yl)propanoic acid, TFA] | 7 nM
O=C(O)CC(c1cccs1)n1ncc2cc(OCCc3ccc4c(n3)NCCC4)ccc21 (stereo not drawn) [Example 49, 3-(5-(2-(5,6,7,8-Tetrahydro-1,8-naphthyridin-2-yl)ethoxy)-1H-indazol-1-yl)-3-(thiophen-2-yl)propanoic acid, TFA] | 33 nM
O=C(O)CC(c1cccnc1)n1ncc2cc(OCCc3ccc4c(n3)NCCC4)ccc21 (stereo not drawn) [Example 50, 3-(Pyridin-3-yl)-3-(5-(2-(5,6,7,8-tetrahydro-1,8-naphthyridin-2-yl)ethoxy)-1H-indazol-1-yl)propanoic acid, TFA] | 80 nM
O=C(O)CCn1ncc2cc(OCCc3ccc4c(n3)NCCC4)ccc21 [Example 51, 3-(5-(2-(5,6,7,8-Tetrahydro-1,8-naphthyridin-2-yl)ethoxy)-1H-indazol-1-yl)propanoic acid] | 2500 nM
O=C(O)CC(c1ccc(F)cn1)n1ncc2cc(OCCc3ccc4c(n3)NCCC4)ccc21 (stereo not drawn) [Example 53, 3-(5-Fluoropyridin-2-yl)-3-(5-(2-(5,6,7,8-tetrahydro-1,8-naphthyridin-2-yl)ethoxy)-1H-indazol-1-yl)propanoic acid, TFA] | 150 nM
O=C(O)CC(c1ccc2oc3ccccc3c2c1)n1ncc2cc(OCCc3ccc4c(n3)NCCC4)ccc21 (stereo not drawn) [Example 54, 3-(Dibenzo[b,d]furan-2-yl)-3-(5-(2-(5,6,7,8-tetrahydro-1,8-naphthyridin-2-yl)ethoxy)-1H-indazol-1-yl)propanoic acid, TFA] | 30 nM
Cc1cc(C)nc(C(CC(=O)O)n2ncc3cc(OCCc4ccc5c(n4)NCCC5)ccc32)n1 (stereo not drawn) [Example 55, 3-(4,6-Dimethylpyrimidin-2-yl)-3-(5-(2-(5,6,7,8-tetrahydro-1,8-naphthyridin-2-yl)ethoxy)-1H-indazol-1-yl)propanoic acid, TFA] | 920 nM
Cc1nc2cc(C(CC(=O)O)n3ncc4cc(OCCc5ccc6c(n5)NCCC6)ccc43)ccc2s1 (stereo not drawn) [Example 56, 3-(2-Methylbenzo[d]thiazol-5-yl)-3-(5-(2-(5,6,7,8-tetrahydro-1,8-naphthyridin-2-yl)ethoxy)-1H-indazol-1-yl)propanoic acid, TFA] | 4.1 nM
O=C(O)CC(c1ccc(Oc2ccccc2)cc1)n1ncc2cc(OCCc3ccc4c(n3)NCCC4)ccc21 (stereo not drawn) [Example 57, 3-(4-Phenoxyphenyl)-3-(5-(2-(5,6,7,8-tetrahydro-1,8-naphthyridin-2-yl)ethoxy)-1H-indazol-1-yl)propanoic acid, TFA] | 11 nM
